This is an account of results in ChEMBL document CHEMBL1201862, “PubChem BioAssay data set” (2004).

Assay type in all cases: functional
Assay [1] in a line: viability of PTEN-deleted HCT116 cells – cell-based, HCT116 PTEN knockout, dose response (AID 1047).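 Note: HCT116 colon tumor cells with PTEN knocked out; cells exposed to compound for 60 hours before readout; potency for loss of cell viability measured by luminescence.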
The target of assay [2] is T1, DNA repair and recombination protein RAD54-like (Homo sapiens, UniProt Q92698).
T1 sequence (Q92698 whole entry): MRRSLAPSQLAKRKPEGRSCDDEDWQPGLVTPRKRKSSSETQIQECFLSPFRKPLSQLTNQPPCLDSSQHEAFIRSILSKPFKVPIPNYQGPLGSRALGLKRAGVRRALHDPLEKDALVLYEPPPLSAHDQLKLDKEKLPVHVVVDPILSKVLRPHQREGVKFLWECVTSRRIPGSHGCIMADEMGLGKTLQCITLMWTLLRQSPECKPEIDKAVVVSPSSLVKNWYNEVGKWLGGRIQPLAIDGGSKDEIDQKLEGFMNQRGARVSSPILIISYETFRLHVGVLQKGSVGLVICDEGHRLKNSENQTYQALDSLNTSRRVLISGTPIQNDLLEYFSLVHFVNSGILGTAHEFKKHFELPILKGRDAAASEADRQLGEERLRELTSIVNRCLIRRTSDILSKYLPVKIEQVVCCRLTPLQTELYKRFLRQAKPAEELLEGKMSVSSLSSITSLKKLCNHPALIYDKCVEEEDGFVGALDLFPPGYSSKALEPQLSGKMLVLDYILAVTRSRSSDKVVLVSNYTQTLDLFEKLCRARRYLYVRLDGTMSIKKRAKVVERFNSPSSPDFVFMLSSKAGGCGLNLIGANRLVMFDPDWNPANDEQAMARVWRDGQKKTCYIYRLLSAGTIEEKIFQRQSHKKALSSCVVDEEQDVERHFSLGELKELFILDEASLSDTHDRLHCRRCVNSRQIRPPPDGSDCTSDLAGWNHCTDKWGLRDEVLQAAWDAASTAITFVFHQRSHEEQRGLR
The assay is described as follows: RAD54 Holliday junction migration blockers – biochemical, fluorescence, cherry-picked samples, dose series, confirmation (AID 651657).

Assay [3] is described as follows: viability of HCT116 lacking mutant beta-catenin – cell-based, human colon tumor, dose response (AID 1045).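 Note: HCT116 colon tumor cells with beta catenin knocked out; cells exposed to compound for 60 hours.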
Another assay addresses T2, Leucine aminopeptidase (Plasmodium falciparum 3D7, UniProt Q8IL11).
T2 sequence (Q8IL11 whole entry): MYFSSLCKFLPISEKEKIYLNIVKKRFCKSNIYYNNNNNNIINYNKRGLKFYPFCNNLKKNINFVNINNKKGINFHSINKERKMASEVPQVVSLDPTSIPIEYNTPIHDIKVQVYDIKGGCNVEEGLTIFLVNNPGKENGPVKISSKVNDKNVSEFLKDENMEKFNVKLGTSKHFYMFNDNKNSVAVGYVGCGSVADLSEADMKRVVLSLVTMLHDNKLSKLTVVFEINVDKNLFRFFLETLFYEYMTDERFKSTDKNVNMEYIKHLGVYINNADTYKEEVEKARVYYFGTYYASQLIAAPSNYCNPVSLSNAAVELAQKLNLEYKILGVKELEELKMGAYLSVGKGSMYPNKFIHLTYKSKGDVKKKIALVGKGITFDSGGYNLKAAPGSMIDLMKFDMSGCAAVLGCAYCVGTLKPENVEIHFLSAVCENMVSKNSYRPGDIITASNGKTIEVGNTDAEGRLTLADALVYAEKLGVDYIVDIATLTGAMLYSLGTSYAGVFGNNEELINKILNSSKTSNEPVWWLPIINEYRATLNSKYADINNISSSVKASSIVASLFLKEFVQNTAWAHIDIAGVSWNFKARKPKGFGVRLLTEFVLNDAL
The assay is described as follows: P. falciparum M17LAP inhibitors, primary screen, biochemical, fluorogenic H-Leu-NHMec substrate, 1536-well (AID 1619).

The next assay concerns P388. The assay is described as follows: cells. Conditions: Mus musculus.
Another assay has as its system SN12K1. The assay is described as follows: cells. Conditions: Homo sapiens.
The test system of the next assay is P388/ADR. The assay is described as follows: cells. To be noted: Mus musculus.
The target of a further assay is Genome polyprotein (dengue virus type 2, UniProt P29990). The assay is described as follows: flavivirus cap methylation enzyme inhibition – biochemical, confirmation dose response, primary screen (AID 588689).
Genome polyprotein, sequence (P29990 2492-3391 limits assumed): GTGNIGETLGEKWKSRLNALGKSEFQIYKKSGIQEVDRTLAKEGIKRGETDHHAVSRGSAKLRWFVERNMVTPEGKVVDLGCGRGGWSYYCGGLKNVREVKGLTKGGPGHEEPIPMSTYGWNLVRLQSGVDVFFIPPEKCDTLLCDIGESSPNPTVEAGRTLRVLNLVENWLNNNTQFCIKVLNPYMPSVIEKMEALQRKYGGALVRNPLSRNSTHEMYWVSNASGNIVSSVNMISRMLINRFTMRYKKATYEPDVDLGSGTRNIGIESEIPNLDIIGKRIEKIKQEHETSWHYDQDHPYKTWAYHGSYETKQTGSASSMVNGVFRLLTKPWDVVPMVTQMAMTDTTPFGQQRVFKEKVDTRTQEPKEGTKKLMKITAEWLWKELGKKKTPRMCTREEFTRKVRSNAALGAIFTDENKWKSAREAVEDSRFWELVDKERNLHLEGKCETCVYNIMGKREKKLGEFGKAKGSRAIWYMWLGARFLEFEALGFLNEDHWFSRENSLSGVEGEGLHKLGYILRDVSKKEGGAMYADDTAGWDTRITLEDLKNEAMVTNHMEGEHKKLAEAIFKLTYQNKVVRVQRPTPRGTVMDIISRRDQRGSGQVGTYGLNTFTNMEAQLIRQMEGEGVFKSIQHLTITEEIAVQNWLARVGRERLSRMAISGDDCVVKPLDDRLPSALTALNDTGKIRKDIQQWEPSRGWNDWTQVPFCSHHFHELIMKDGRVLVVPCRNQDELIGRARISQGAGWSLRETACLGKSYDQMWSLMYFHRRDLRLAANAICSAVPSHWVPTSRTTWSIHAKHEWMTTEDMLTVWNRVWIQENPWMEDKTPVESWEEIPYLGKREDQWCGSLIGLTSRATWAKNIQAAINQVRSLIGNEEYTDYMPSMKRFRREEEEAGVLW
For assay [4], the target named is T3, Replicative DNA helicase DnaB (Mycobacterium tuberculosis, UniProt P9WMR3).
T3 sequence (P9WMR3 whole entry): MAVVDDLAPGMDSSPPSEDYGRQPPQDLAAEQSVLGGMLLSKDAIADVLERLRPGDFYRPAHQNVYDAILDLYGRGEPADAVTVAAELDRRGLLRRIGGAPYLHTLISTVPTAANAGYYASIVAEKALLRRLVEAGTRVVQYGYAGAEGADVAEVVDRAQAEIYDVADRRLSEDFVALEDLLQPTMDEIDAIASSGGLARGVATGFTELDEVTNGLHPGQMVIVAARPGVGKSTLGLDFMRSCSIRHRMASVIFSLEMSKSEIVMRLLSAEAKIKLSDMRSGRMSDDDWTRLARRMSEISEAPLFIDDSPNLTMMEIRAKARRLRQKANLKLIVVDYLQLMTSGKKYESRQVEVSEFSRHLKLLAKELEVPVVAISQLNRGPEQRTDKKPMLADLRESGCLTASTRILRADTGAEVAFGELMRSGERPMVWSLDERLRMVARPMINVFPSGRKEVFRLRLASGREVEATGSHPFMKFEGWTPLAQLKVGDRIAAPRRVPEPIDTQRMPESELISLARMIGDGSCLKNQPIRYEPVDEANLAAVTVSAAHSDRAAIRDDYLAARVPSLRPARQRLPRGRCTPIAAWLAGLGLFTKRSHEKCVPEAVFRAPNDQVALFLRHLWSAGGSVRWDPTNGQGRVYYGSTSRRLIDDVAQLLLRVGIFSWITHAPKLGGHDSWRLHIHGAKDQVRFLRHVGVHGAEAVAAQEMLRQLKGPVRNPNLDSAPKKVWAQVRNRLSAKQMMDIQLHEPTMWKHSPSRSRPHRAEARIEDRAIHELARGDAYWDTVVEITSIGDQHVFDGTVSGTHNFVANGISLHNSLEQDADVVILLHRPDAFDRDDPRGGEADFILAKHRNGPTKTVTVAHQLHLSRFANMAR
The assay is described as follows: DnaB intein splicing inhibitors, dose response, biochemical, cell-free fluorescence (AID 449749).

The target in another assay is T4, Protein RecA (Mycobacterium tuberculosis, UniProt P9WHJ3).
T4 sequence (P9WHJ3 whole entry): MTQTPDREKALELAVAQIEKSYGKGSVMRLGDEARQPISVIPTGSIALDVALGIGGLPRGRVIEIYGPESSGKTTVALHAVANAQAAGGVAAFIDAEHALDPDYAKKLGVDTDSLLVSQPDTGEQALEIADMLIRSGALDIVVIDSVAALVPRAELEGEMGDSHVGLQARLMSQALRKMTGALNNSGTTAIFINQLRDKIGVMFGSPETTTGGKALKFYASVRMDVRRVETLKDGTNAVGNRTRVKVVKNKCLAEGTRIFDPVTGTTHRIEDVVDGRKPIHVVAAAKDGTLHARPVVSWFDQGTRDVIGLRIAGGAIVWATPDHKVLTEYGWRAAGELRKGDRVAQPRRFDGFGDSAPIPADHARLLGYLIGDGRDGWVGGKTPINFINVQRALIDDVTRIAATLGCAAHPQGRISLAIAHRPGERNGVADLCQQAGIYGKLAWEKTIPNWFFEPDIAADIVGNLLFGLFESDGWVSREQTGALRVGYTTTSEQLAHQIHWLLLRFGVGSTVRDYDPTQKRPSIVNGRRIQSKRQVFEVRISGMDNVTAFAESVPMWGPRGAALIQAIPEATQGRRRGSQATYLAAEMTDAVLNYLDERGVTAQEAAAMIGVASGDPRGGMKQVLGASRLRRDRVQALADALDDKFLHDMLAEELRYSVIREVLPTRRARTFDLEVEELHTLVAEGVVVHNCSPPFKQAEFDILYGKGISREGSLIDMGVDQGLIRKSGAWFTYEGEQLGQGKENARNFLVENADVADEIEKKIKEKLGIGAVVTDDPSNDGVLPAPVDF
The assay is described as follows: Fluorescence Cell-Free Homogeneous Dose Retest to Identify Inhibitors of RecA-Intein Splicing Activity. [Related pubchem assays (depositor defined):AID2097, AID2223, AID489010, AID492950].

The target of assay [5] is Induced myeloid leukemia cell differentiation protein Mcl-1 (Homo sapiens, UniProt Q07820).
Induced myeloid leukemia cell differentiation protein Mcl-1, sequence (Q07820 whole entry): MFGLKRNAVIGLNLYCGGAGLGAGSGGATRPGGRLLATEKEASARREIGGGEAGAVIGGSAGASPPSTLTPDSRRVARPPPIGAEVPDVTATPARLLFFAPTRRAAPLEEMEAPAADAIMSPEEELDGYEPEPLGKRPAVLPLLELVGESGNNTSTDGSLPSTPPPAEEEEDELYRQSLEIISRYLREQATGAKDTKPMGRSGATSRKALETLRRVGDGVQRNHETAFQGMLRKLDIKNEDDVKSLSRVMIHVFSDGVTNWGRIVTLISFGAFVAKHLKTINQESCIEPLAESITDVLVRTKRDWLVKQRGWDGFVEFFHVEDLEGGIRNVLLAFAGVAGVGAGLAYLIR
The target in assay [6] is T5, Short transient receptor potential channel 4 (Mus musculus, UniProt Q9QUQ5).
T5 sequence (Q9QUQ5 whole entry): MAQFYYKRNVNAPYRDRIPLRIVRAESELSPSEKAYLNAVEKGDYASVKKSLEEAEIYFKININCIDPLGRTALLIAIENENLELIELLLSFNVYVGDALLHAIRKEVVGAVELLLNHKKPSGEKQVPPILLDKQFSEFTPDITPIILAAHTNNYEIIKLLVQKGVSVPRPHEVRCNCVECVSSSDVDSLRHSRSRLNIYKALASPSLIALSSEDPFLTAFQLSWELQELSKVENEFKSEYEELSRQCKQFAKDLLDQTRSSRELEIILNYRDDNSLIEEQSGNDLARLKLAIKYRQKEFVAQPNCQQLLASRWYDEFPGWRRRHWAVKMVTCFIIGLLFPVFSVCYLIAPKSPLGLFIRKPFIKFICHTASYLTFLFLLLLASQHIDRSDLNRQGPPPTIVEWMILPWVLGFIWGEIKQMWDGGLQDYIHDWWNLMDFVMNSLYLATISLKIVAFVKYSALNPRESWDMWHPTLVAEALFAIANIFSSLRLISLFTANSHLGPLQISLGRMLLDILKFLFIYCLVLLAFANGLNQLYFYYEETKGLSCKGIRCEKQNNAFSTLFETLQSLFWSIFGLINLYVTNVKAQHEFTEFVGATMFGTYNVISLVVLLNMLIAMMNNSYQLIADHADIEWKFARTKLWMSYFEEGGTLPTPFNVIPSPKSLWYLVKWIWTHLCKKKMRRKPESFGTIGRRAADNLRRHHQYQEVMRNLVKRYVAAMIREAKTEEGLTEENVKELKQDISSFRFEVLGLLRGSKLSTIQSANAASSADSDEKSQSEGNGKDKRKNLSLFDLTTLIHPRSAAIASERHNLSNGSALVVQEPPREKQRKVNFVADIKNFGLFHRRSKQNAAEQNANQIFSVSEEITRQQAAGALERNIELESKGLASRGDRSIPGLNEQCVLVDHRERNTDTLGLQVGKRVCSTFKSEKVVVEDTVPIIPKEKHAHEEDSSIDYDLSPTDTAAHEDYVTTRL
The assay is described as follows: block of DAMGO-driven TRPC4 calcium entry – cell-based, HEK293 TRPC4/mu-opioid, Fluo-4 calcium, dose response (AID 434942).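 Note: potency of inhibitors blocking the TRPC4 calcium response.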

Active and inactive are the calls of the source.

As for `O=C(NC1CN2CCC1CC2)c1cc(Cl)c([N+](=O)[O-])c2nc[nH]c12` (centres undefined), the figures for the EC50 in [1] and in assay [3] were 16.3 µM (active) and 12.1 µM (active), respectively. The AC50 in assay [2] was 41.6 µM (active).

Regarding `CCOc1ccc(NC(=O)CSCC(=O)O)cc1`, the IC50 on Leucine aminopeptidase is 9.94 µM (active).

Regarding `CC1(C)OC2CC(=O)OCC23C1CC(=O)C1(C)C3CCC2(C)C(c3ccoc3)OC(=O)C3OC321` (centres undefined), the GI50 was > 39.5 µM (inactive) in the assay with P388, 119 µM (inactive) in the assay with SN12K1 and > 125 µM (inactive) in the assay on P388/ADR.

On to `Nc1ccc2c(c1)CN1C(=O)c3ccccc3C1=N2` [DANIQUIDONE], for which the GI50 in the assay on P388 is 4.36 µM (inactive); with SN12K1, 23.6 µM (inactive); in the assay with P388/ADR, 24.8 µM (inactive).

`CCc1ccc(NC(=O)C2CCCCC2C(=O)O)cc1` (centres undefined): the IC50 on Leucine aminopeptidase was 12.1 µM (active).

Take `CN(C)C(=O)OCOC(=O)N(C)C`: the GI50 was 66.8 µM (inactive) in the assay on P388, > 100 µM (inactive) in the assay on SN12K1 and > 100 µM (inactive) in the assay with P388/ADR.

For the molecule `c1ccc2c(c1)SP1Sc3ccccc3P21` (centres undefined), the GI50 was 54.2 µM (inactive) with P388, 56.5 µM (inactive) in the assay on SN12K1 and 28.2 µM (inactive) in the assay on P388/ADR.

For `COc1cccc2c1C(=O)c1c(O)c3c(c(O)c1C2=O)C[C@@](O)(C(C)=O)C[C@@H]3OC1CC(N(C)C)C(O)C(C)O1` (some centres undefined), the GI50 in the assay with P388, in the assay on SN12K1 and in the assay on P388/ADR was 0.01 µM (active) throughout.

As to `CC1=NN(c2ccccc2)C(=O)/C1=C\c1ccc(Oc2ccc([N+](=O)[O-])cc2[N+](=O)[O-])cc1`, the IC50 on Genome polyprotein was 19.3 µM (active). Moreover, in assay [4], the AC50 was 3.66 µM (active). Also, at Protein RecA, the EC50 is 5.33 µM (active).

`Cc1[nH]c2ccccc2c1/C=C/c1nc2ccccc2c(=O)[nH]1`: the IC50 in assay [5] was 5.55 µM (active).

Regarding `CC1CCN(S(=O)(=O)c2ccc(NC(=O)CSc3ncccc3C(=O)O)cc2)CC1`, the IC50 at Leucine aminopeptidase was 9.68 µM (active).

Take `CC(/C=C1\SC(=S)N(C(C(=O)O)C(C)C)C1=O)=C\c1ccccc1` (centres undefined): the IC50 at Genome polyprotein is 34.3 µM (active). For the same molecule, the EC50 in [6] was 5.96 µM (active).

Take `COc1cc(C2c3cc4c(cc3[C@@H](Nc3ccc5c(c3)OCO5)C3COC(=O)[C@H]23)OCO4)cc(OC)c1O` (some centres undefined): the GI50 in the assay with P388 was < 0.01 µM (active); in the assay on SN12K1, < 0.0414 µM (active); in the assay with P388/ADR it was 0.0548 µM (active).

Consider `COc1cc([C@@H]2c3cc4c(c(O)c3C[C@H]3COC(=O)[C@@H]32)OCO4)cc(OC)c1OC` [BETA-PELTATIN A], for which the GI50 with P388 and in the assay on P388/ADR was 0.015 µM (active) in each case.

Turning to `Cc1sccc1/C=N/NC(=O)c1cccc2ccccc12`, the IC50 in assay [5] is 21.1 µM (not active).

For the molecule `COc1ccc(CNc2nc3nc(-c4ccccc4)cc(O)n3n2)cc1OC`, the IC50 on Leucine aminopeptidase is 24.2 µM (active).
